PubChem BioAssay AID1745844 (Carcinogenic Potency Database (CPDB), 2022)
Calls of active or inactive are those of the source. The rule behind the calls is not given here.

System: rodent lifetime carcinogenesis bioassay, tumor incidence TD50
Test: chronic cancer bioassays in animals – CPDB, compiled studies (AID 1745844)

SMILES: CNNCc1ccc(C(=O)NC(C)C)cc1
- TD50 (monkey, strain Cynomolgus [Macaca fascicularis], both sexes, several routes, site: all sites, lesion: acute nonlymphocytic leukemia, dosed 825 weeks, study length 980 weeks): 14.8 mg/kg/day
- TD50 (monkey, strain Cynomolgus [Macaca fascicularis], both sexes, several routes, site: all sites, lesion: lymphocytic lymphoma, dosed 825 weeks, study length 980 weeks): 21.1 mg/kg/day
- TD50 (monkey, strain Cynomolgus [Macaca fascicularis], both sexes, several routes, site: any site (literature study), lesion: malignant tumor, dosed 825 weeks, study length 980 weeks): 1.73 mg/kg/day
- TD50 (monkey, strain Cynomolgus [Macaca fascicularis], both sexes, several routes, site: bone, lesion: osteosarcoma, dosed 825 weeks, study length 980 weeks): 5.91 mg/kg/day
- TD50 (monkey, strain Cynomolgus [Macaca fascicularis], both sexes, several routes, site: brain, lesion: astrocytoma, dosed 825 weeks, study length 980 weeks): 6.19 mg/kg/day
- TD50 (monkey, strain Cynomolgus [Macaca fascicularis], both sexes, several routes, site: kidney, lesion: hemangiosarcoma, dosed 825 weeks, study length 980 weeks): 23.5 mg/kg/day
- TD50 (monkey, strain Rhesus [Macaca mulatta], both sexes, several routes, site: all sites, lesion: acute nonlymphocytic leukemia, dosed 825 weeks, study length 1182 weeks): 4.21 mg/kg/day
- TD50 (monkey, strain Rhesus [Macaca mulatta], both sexes, several routes, site: any site (literature study), lesion: malignant tumor, dosed 825 weeks, study length 1182 weeks): 1.9 mg/kg/day
- TD50 (monkey, strain Rhesus [Macaca mulatta], both sexes, several routes, site: cecum, lesion: adenocarcinoma, dosed 825 weeks, study length 1182 weeks): 5.16 mg/kg/day
- TD50 (monkey, strain Rhesus [Macaca mulatta], both sexes, several routes, site: humerus, lesion: osteosarcoma, dosed 825 weeks, study length 1182 weeks): 32.7 mg/kg/day
- TD50 (monkey, strain Rhesus [Macaca mulatta], both sexes, several routes, site: kidney, lesion: hemangiosarcoma, dosed 825 weeks, study length 1182 weeks): 39.6 mg/kg/day
- TD50 (mouse, strain B6C3F1, females, i.p., site: all sites + brain + lung + uterus, lesion: leukemia + lymphoma + olfactory neuroblastoma + alveolar/bronchiolar adenoma + adenocarcinoma, NOS, dosed 52 weeks, study length 85 weeks): 0.194 mg/kg/day
- TD50 (mouse, strain B6C3F1, females, i.p., site: all sites, lesion: leukemia + lymphoma, dosed 52 weeks, study length 80 weeks): 0.69 mg/kg/day
- TD50 (mouse, strain B6C3F1, females, i.p., site: all sites, lesion: leukemia + lymphoma, dosed 52 weeks, study length 85 weeks): 0.758 mg/kg/day
- TD50 (mouse, strain B6C3F1, females, i.p., site: all sites, lesion: lymphoma, dosed 52 weeks, study length 80 weeks): 0.855 mg/kg/day
- TD50 (mouse, strain B6C3F1, females, i.p., site: all sites, lesion: lymphoma, dosed 52 weeks, study length 85 weeks): 0.908 mg/kg/day
- TD50 (mouse, strain B6C3F1, females, i.p., site: any site (literature study), lesion: several types, types named in the paper, dosed 52 weeks, study length 85 weeks): 0.193 mg/kg/day
- TD50 (mouse, strain B6C3F1, females, i.p., site: brain, lesion: olfactory neuroblastoma, dosed 52 weeks, study length 80 weeks): 5.62 mg/kg/day
- TD50 (mouse, strain B6C3F1, females, i.p., site: brain, lesion: olfactory neuroblastoma, dosed 52 weeks, study length 85 weeks): 6.34 mg/kg/day
- TD50 (mouse, strain B6C3F1, females, i.p., site: lung, lesion: alveolar/bronchiolar adenoma + alveolar/bronchiolar carcinoma, dosed 52 weeks, study length 85 weeks): 3.83 mg/kg/day
- TD50 (mouse, strain B6C3F1, females, i.p., site: lung, lesion: alveolar/bronchiolar adenoma, dosed 52 weeks, study length 80 weeks): 3.39 mg/kg/day
- TD50 (mouse, strain B6C3F1, females, i.p., site: lung, lesion: alveolar/bronchiolar adenoma, dosed 52 weeks, study length 85 weeks): 3.83 mg/kg/day
- TD50 (mouse, strain B6C3F1, females, i.p., site: uterus, lesion: adenocarcinoma, NOS, dosed 52 weeks, study length 80 weeks): 0.411 mg/kg/day
- TD50 (mouse, strain B6C3F1, females, i.p., site: uterus, lesion: adenocarcinoma, NOS, dosed 52 weeks, study length 85 weeks): 0.253 mg/kg/day
- TD50 (mouse, strain B6C3F1, males, i.p., site: all sites + brain + lung, lesion: leukemia + lymphoma + olfactory neuroblastoma + undifferentiated carcinoma + alveolar/bronchiolar adenoma + alveolar/bronchiolar c, dosed 52 weeks, study length 85 weeks): 0.511 mg/kg/day
- TD50 (mouse, strain B6C3F1, males, i.p., site: all sites, lesion: leukemia + lymphoma, dosed 52 weeks, study length 85 weeks): 3.34 mg/kg/day
- TD50 (mouse, strain B6C3F1, males, i.p., site: any site (literature study), lesion: several types, types named in the paper, dosed 52 weeks, study length 85 weeks): 0.464 mg/kg/day
- TD50 (mouse, strain B6C3F1, males, i.p., site: brain, lesion: olfactory neuroblastoma + undifferentiated carcinoma, dosed 52 weeks, study length 85 weeks): 4.51 mg/kg/day
- TD50 (mouse, strain B6C3F1, males, i.p., site: brain, lesion: olfactory neuroblastoma, dosed 52 weeks, study length 85 weeks): 5.19 mg/kg/day
- TD50 (mouse, strain B6C3F1, males, i.p., site: liver, lesion: hepatocellular adenoma + hepatocellular carcinoma + neoplastic nodule, dosed 52 weeks, study length 85 weeks): 3.28 mg/kg/day
- TD50 (mouse, strain B6C3F1, males, i.p., site: lung, lesion: alveolar/bronchiolar adenoma + alveolar/bronchiolar carcinoma, dosed 52 weeks, study length 85 weeks): 0.623 mg/kg/day
- TD50 (mouse, strain B6C3F1, males, i.p., site: lung, lesion: alveolar/bronchiolar adenoma, dosed 52 weeks, study length 85 weeks): 0.721 mg/kg/day
- TD50 (mouse, strain Swiss, females, i.p., site: all sites, lesion: leukemia, dosed 26 weeks, study length 76 weeks): 3.72 mg/kg/day
- TD50 (mouse, strain Swiss, females, i.p., site: all sites, lesion: lymphosarcoma, dosed 26 weeks, study length 76 weeks): 6.99 mg/kg/day
- TD50 (mouse, strain Swiss, females, i.p., site: any site (literature study), lesion: benign tumor, dosed 26 weeks, study length 76 weeks): 27.8 mg/kg/day
- TD50 (mouse, strain Swiss, females, i.p., site: any site (literature study), lesion: malignant tumor, dosed 26 weeks, study length 76 weeks): 0.391 mg/kg/day
- TD50 (mouse, strain Swiss, females, i.p., site: any site (literature study), lesion: several types, types named in the paper, dosed 26 weeks, study length 76 weeks): 0.244 mg/kg/day
- TD50 (mouse, strain Swiss, females, i.p., site: lung, lesion: several types, types named in the paper, dosed 26 weeks, study length 76 weeks): 1.05 mg/kg/day
- TD50 (mouse, strain Swiss, females, i.p., site: uterus, lesion: carcinoma, dosed 26 weeks, study length 76 weeks): 5.75 mg/kg/day
- TD50 (mouse, strain Swiss, females, i.p., site: uterus, lesion: sarcoma, dosed 26 weeks, study length 76 weeks): 6.11 mg/kg/day
- TD50 (mouse, strain Swiss, males, i.p., site: any site (literature study), lesion: benign tumor, dosed 26 weeks, study length 78 weeks): 9.84 mg/kg/day
- TD50 (mouse, strain Swiss, males, i.p., site: any site (literature study), lesion: malignant tumor, dosed 26 weeks, study length 78 weeks): 1.74 mg/kg/day
- TD50 (mouse, strain Swiss, males, i.p., site: any site (literature study), lesion: several types, types named in the paper, dosed 26 weeks, study length 78 weeks): 1.15 mg/kg/day
- TD50 (mouse, strain Swiss, males, i.p., site: lung, lesion: several types, types named in the paper, dosed 26 weeks, study length 78 weeks): 1.53 mg/kg/day
- TD50 (rat, strain BR 46, males, i.v., site: any site (literature study), lesion: malignant tumor, dosed 52 weeks, study length 104 weeks): 3.93 mg/kg/day
- TD50 (rat, strain BR 46, males, i.v., site: any site (literature study), lesion: several types, types named in the paper, dosed 52 weeks, study length 104 weeks): 4.01 mg/kg/day
- TD50 (rat, strain Sprague-Dawley, females, i.p., site: all sites + brain + cerebrum + mammary gland, lesion: lymphoma + olfactory neuroblastoma + mucinous adenocarcinoma + adenocarcinoma, NOS + adenoma, NOS, dosed 26 weeks, study length 86 weeks): 0.337 mg/kg/day
- TD50 (rat, strain Sprague-Dawley, females, i.p., site: all sites, lesion: lymphoma, dosed 26 weeks, study length 80 weeks): 4.48 mg/kg/day
- TD50 (rat, strain Sprague-Dawley, females, i.p., site: all sites, lesion: lymphoma, dosed 26 weeks, study length 86 weeks): 5.18 mg/kg/day
- TD50 (rat, strain Sprague-Dawley, females, i.p., site: any site (literature study), lesion: several types, types named in the paper, dosed 26 weeks, study length 86 weeks): 0.329 mg/kg/day
- TD50 (rat, strain Sprague-Dawley, females, i.p., site: brain + cerebrum, lesion: olfactory neuroblastoma + mucinous adenocarcinoma, dosed 26 weeks, study length 80 weeks): 0.36 mg/kg/day
- TD50 (rat, strain Sprague-Dawley, females, i.p., site: brain + cerebrum, lesion: olfactory neuroblastoma + mucinous adenocarcinoma, dosed 26 weeks, study length 86 weeks): 0.416 mg/kg/day
- TD50 (rat, strain Sprague-Dawley, females, i.p., site: brain, lesion: olfactory neuroblastoma, dosed 26 weeks, study length 80 weeks): 0.361 mg/kg/day
- TD50 (rat, strain Sprague-Dawley, females, i.p., site: brain, lesion: olfactory neuroblastoma, dosed 26 weeks, study length 86 weeks): 0.418 mg/kg/day
- TD50 (rat, strain Sprague-Dawley, females, i.p., site: mammary gland, lesion: adenocarcinoma, NOS + adenoma, NOS, dosed 26 weeks, study length 80 weeks): 0.396 mg/kg/day
- TD50 (rat, strain Sprague-Dawley, females, i.p., site: mammary gland, lesion: adenocarcinoma, NOS + adenoma, NOS, dosed 26 weeks, study length 86 weeks): 0.458 mg/kg/day
- TD50 (rat, strain Sprague-Dawley, females, i.p., site: mammary gland, lesion: adenocarcinoma, NOS, dosed 26 weeks, study length 80 weeks): 0.397 mg/kg/day
- TD50 (rat, strain Sprague-Dawley, females, i.p., site: mammary gland, lesion: adenocarcinoma, NOS, dosed 26 weeks, study length 86 weeks): 0.459 mg/kg/day
- TD50 (rat, strain Sprague-Dawley, males, i.p., site: all sites + brain + mammary gland + olfactory bulb, lesion: leukemia + lymphoma + carcinoma, NOS + olfactory neuroblastoma + adenocarcinoma, NOS + adenoma, NOS, dosed 26 weeks, study length 61 weeks): 0.284 mg/kg/day
- TD50 (rat, strain Sprague-Dawley, males, i.p., site: all sites, lesion: leukemia + lymphoma, dosed 26 weeks, study length 61 weeks): 2.1 mg/kg/day
- TD50 (rat, strain Sprague-Dawley, males, i.p., site: all sites, lesion: leukemia, dosed 26 weeks, study length 61 weeks): 13.3 mg/kg/day
- TD50 (rat, strain Sprague-Dawley, males, i.p., site: all sites, lesion: lymphoma, dosed 26 weeks, study length 61 weeks): 2.51 mg/kg/day
- TD50 (rat, strain Sprague-Dawley, males, i.p., site: any site (literature study), lesion: several types, types named in the paper, dosed 26 weeks, study length 61 weeks): 0.186 mg/kg/day
- TD50 (rat, strain Sprague-Dawley, males, i.p., site: brain + olfactory bulb, lesion: carcinoma, NOS + olfactory neuroblastoma + adenocarcinoma, NOS, dosed 26 weeks, study length 61 weeks): 0.343 mg/kg/day
- TD50 (rat, strain Sprague-Dawley, males, i.p., site: mammary gland, lesion: adenocarcinoma, NOS + adenoma, NOS, dosed 26 weeks, study length 61 weeks): 4.5 mg/kg/day
- TD50 (rat, strain Sprague-Dawley, males, i.p., site: mammary gland, lesion: adenocarcinoma, NOS, dosed 26 weeks, study length 61 weeks): 4.85 mg/kg/day
- TD50 (rat, strain Sprague-Dawley, males, i.p., site: olfactory bulb, lesion: adenocarcinoma, NOS, dosed 26 weeks, study length 61 weeks): 4.67 mg/kg/day

SMILES: C=CC(OC(C)=O)c1ccc2c(c1)OCO2 (stereo not drawn)
- TD50 (rat, strain Charles River CD (Sprague-Dawley), males, in feed, site: any site (literature study), lesion: several types, types named in the paper, dosed 36 weeks, study length 52 weeks): 21.1 mg/kg/day
- TD50 (rat, strain Charles River CD (Sprague-Dawley), males, in feed, site: any site (literature study), lesion: several types, types named in the paper, dosed 47 weeks, study length 69 weeks): 32.4 mg/kg/day
- TD50 (rat, strain Charles River CD (Sprague-Dawley), males, in feed, site: forestomach, lesion: papilloma, dosed 36 weeks, study length 52 weeks): 21.1 mg/kg/day
- TD50 (rat, strain Charles River CD (Sprague-Dawley), males, in feed, site: forestomach, lesion: papilloma, dosed 47 weeks, study length 69 weeks): 30.7 mg/kg/day
- carcinogen call (rat, strain Charles River CD (Sprague-Dawley), males, in feed, site: liver, lesion: carcinoma, dosed 47 weeks, study length 69 weeks): negative (inactive)
- TD50 (rat, strain Charles River CD (Sprague-Dawley), males, in feed, site: liver, lesion: hepatocellular carcinoma, dosed 36 weeks, study length 52 weeks): 348 mg/kg/day (inactive)
